Reference: patent US20060040298A1, “Rhesus monkey NURR1 nuclear receptor” (priority 2004, published 2006)

What was measured:
Type in all cases: cell-based, Macaca mulatta (rhesus monkey)
[1] = target: T1, GR/NURR1 chimera receptor (NURR1 LBD) (UniProt P06536+P43354); assay: Relative transactivation of GR/NURR1 chimera receptor versus GR/LXRβ chimeric receptor, MMTV-luciferase reporter; conditions: test analytes at 0, 1, 10, and 30 μM in DMSO; 48 hours post-transfection; FIG. 8
T1 construct: expressed in transfected cells
T1 sequence (P06536+P43354 fused, change not shown): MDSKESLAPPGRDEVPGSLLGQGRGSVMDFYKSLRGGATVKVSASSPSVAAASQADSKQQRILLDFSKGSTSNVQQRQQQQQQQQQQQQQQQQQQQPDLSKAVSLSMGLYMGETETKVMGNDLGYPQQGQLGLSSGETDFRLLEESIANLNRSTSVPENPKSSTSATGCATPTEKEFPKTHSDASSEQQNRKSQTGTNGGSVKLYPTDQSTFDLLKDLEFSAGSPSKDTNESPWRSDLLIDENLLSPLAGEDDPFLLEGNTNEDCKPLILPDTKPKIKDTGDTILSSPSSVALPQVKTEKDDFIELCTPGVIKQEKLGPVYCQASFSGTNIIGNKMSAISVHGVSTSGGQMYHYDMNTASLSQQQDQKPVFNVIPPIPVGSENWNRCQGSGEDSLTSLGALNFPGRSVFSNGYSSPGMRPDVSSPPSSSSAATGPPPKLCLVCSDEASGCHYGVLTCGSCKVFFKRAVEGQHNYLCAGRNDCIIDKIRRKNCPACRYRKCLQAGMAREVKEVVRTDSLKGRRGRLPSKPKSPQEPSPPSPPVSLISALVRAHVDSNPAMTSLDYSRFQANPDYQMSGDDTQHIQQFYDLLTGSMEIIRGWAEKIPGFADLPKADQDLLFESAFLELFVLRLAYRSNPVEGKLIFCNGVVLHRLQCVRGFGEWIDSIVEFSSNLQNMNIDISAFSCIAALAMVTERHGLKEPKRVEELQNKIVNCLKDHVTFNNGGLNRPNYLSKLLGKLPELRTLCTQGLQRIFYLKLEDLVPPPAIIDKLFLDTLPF
Protocol: Relative transactivation of GR/NURR1 chimera receptor in response to a panel of test analytes was determined.
An MMTV-luciferase reporter gene expression cassette was cotransfected with a gene expression cassette comprising DNA encoding either the chimeric receptor GR/NURR1 or a chimeric receptor comprising GR/LXRβ under transfection conditions similar to those in Example 3.
Expression vector GR/LXRβ was prepared in a similar manner to the GR/PPARα chimeric receptor in Example 5. […]
The next day, the transfected cells were washed and then refed with the appropriate medium containing 5% activated charcoal-stripped serum. […] The results are shown in FIG. 8 and are expressed as a relative activity in which the activity at each concentration that was obtained with cells transfected with the GR/NURR1 was divided by the corresponding activity that was obtained from cells cotransfected with the GR/LXRβ. […]

[2] = target: T1, GR/NURR1 chimera receptor (NURR1 LBD); assay: Relative transactivation of GR/NURR1 chimera receptor versus GR/PPARα chimeric receptor, MMTV-luciferase reporter; conditions: test analytes at 0, 1, 10, and 30 μM in DMSO; FIG. 7
Protocol: The relative transactivation of GR/NURR1 chimera receptor in response to a panel of test analytes was determined.
To further verify the selective NURR1 LBD-compound interactions, the same compounds were added to cells that had been co-transfected with the MMTV-luciferase reporter gene expression cassette and a gene expression cassette comprising DNA encoding either the chimeric receptor GR/NURR1 or a chimeric GR/PPARα receptor under conditions similar to those in Example 5.
Expression vector 3GR/PPARα contained the chimeric GR/PPARα receptor in which DNA encoding the DNA binding domain of GR was fused to the ligand binding domain of mouse PPARα was inserted into plasmid pSG5 (See Boie et al., J. Biol. Chem. 268: 5530-[…] (1993)).
Then, aliquots of the transfected cells were treated with test analytes at 0, 1, 10, and 30 μM concentrations in DMSO. The test analytes included Bicalutamide, Lovastatin, ZOCOR, and various SARM compounds. The results are shown in FIG. 7 and are expressed as a relative activity in which the activity at each concentration that was obtained with the extracts from the cells cotransfected with GR/NURR1 was divided by the corresponding activity that was obtained from extracts from the cells cotransfected with GR/PPARα. Other chimeric receptors other than GR/PPARα can be used. […]

[3] = target: T2, GR/NURR1 chimera (rat GR DBD fused to rhNURR1 LBD) (UniProt P06536+P43354); assay: GR/NURR1 chimera transactivation of the MMTV-LUC reporter in transfected CHO cells; conditions: FIG. 6; for NURR1 agonist activity: CHO cells co-transfected with GR/NURR1 chimera and reporter gene expression cassette; for luciferase expression from the MMTV-LUC reporter plasmid: CHO cells, compared to compound F and TOFA
T2 construct: expressed in transfected cells; host or cells: CHO cells, transient transfection of the pSG5 plasmid
T2 sequence (P06536+P43354 fused, change not shown): as above
Excerpt: A nucleic acid encoding a chimeric nuclear receptor comprising the rat glucocorticoid receptor (GR) DBD fused to the rhNURR1 LBD was constructed and the nucleic acid inserted downstream of the SV40 promoter in plasmid pSG5. The rat GR DBD consists of about amino acid 1 to about amino acid 505 and the rhNURR1 LBD consists of the amino acid sequence beginning from about amino acid 329 to about amino acid 598 (See FIG. 2). A nucleic acid encoding the rat GR DBD, which consisted of nucleotides 1 to 1583 (and which included the proximal 5′ untranslated sequences), was ligated to the nucleic encoding the rhNURR1 (nucleotides 329 to 1794). At the junction in the fusion protein between amino acid 505 of the rat GR DBD and amino acid 329 of the rhNURR1 LDB there are three extra amino acids, Alanine, Arginine, and Glutamic acid, which are encoded by the oligonucleotide 5′-GCTCGAGAA-3′ (SEQ ID NO:11) which includes an XhoI restriction enyme site.
The chimeric nuclear receptor was constructed by ligating the rat GRDBD encoding nucleotide fragment (nucleotides 1 to 1583) to the rhNURR1 LBD encoding nucleotide fragment (nucleotides 329 to 1794) and then inserting the ligated GRDBD/rhNURR1 LBD nucleotide fragments into the pSG5 plasmid expression vector between the EcoRI and BamHI sites.
A reporter gene expression cassette comprising the MMTV(2xGRE) promoter was constructed as described in Schmidt et al., Mol. Endocrinol. 6(10):1634-41 (1992).
A routine transient transfection assay for identifying agonists of rhNURR1 activity is described. While the transfection uses the FuGENE6 method of Roche Applied Science, Indianapolis, Ind., other transfection methods can be used.
In general, the method consists of plating about 0.8 to 1×10^4 transfected COS-1 or CHO cells per well of 96-well tissue culture plates which are UV and visible light transparent. The media that the cells are plated in is exponential growth medium which consists of phenol red-free DMEM containing 10% fetal bovine serum and 1× penicillin/streptomycin. Incubation conditions are 37° C. and 5% CO2. The transfection is done in batch mode.
For a transfection, the cells are trypsinized and resuspended to about 8×10^4 cells/mL in fresh medium. FuGENE6 is mixed with serum-free medium (for example, OPTIMEM, Invitrogen, Carlsbad, Calif.) at a ratio of 2 to 3. About 0.625 ng of DNA encoding the chimeric receptor of Example 2 and 0.625 ng DNA comprising the MMTV promoter operably linked to the luciferase gene (MMTV-LUC) are added to the FuGENE6 in serum-free medium and the mixture incubated at room temperature for about 20 minutes. The mixture is then added to one mL of the cell suspension and 100 μL aliquots plated to the wells of a 96-well tissue culture plate. Thus, a total ten wells contain cells, each containing about 8,000 cells. About 16 to 24 hours after transfection, for each well, about 1 uL of an analyte in a vehicle such as DMSO is added to the well. At least one well is reserved as a control and receives the vehicle alone. After 24 hours exposure to the analytes, the cells are assayed for luciferase activity. The cells are lysed by a Promega cell culture lysis buffer for approximately 30 min and then the luciferase activity in the extracts is assayed in the 96-well format liminometer (MICROBETA JET 1450, Perkin Elmer, Boston, Mass.). Results are calculated as fold induction of compound treated cells over control treated cells.
The CHO cells were transfected as in Example 3. […]

relative activity (GR/NURR1 activity divided by GR/LXRβ activity) [1]	relative activity (GR/NURR1 activity divided by GR/PPARα activity) [2]	NURR1 agonist activity [3]	luciferase expression from the MMTV-LUC reporter plasmid [3]	Compound
increase in activity	increase in activity	NURR1 agonists	increase in luciferase expression	CCC(C)(C)C(=O)O[C@H]1C[C@@H](C)C=C2C=C[C@H](C)[C@H](CC[C@@H]3C[C@@H](O)CC(=O)O3)[C@H]21 [ZOCOR]
–	–	NURR1 agonists	–	CCCCCCCCCCCCCCOc1ccc(C(=O)O)o1 [TOFA, 5-(tetradecyloxy)-2-furoic acid]
increase in activity	increase in activity	NURR1 agonists	increase in luciferase expression	CC[C@H](C)C(=O)O[C@H]1C[C@@H](C)C=C2C=C[C@H](C)[C@H](CC[C@@H]3C[C@@H](O)CC(=O)O3)[C@H]21 [Lovastatin]
